Assays:
Assay type in all cases: biochemical
LCK = LCK (Homo sapiens, UniProt P06239); test: Inhibition of a panel of kinases, in vitro HotSpot kinase assay: LCK; conditions: Table 15, C compounds; 1 μM ATP; read-out: IC50 LCK
JAK3 = target: T1, JAK3 (Homo sapiens, UniProt P52333); test: Inhibition of a panel of kinases, in vitro HotSpot kinase assay: JAK3; conditions: Table 15, C compounds; 1 μM ATP; read-out: IC50 JAK3
T1 sequence (P52333 1-1124): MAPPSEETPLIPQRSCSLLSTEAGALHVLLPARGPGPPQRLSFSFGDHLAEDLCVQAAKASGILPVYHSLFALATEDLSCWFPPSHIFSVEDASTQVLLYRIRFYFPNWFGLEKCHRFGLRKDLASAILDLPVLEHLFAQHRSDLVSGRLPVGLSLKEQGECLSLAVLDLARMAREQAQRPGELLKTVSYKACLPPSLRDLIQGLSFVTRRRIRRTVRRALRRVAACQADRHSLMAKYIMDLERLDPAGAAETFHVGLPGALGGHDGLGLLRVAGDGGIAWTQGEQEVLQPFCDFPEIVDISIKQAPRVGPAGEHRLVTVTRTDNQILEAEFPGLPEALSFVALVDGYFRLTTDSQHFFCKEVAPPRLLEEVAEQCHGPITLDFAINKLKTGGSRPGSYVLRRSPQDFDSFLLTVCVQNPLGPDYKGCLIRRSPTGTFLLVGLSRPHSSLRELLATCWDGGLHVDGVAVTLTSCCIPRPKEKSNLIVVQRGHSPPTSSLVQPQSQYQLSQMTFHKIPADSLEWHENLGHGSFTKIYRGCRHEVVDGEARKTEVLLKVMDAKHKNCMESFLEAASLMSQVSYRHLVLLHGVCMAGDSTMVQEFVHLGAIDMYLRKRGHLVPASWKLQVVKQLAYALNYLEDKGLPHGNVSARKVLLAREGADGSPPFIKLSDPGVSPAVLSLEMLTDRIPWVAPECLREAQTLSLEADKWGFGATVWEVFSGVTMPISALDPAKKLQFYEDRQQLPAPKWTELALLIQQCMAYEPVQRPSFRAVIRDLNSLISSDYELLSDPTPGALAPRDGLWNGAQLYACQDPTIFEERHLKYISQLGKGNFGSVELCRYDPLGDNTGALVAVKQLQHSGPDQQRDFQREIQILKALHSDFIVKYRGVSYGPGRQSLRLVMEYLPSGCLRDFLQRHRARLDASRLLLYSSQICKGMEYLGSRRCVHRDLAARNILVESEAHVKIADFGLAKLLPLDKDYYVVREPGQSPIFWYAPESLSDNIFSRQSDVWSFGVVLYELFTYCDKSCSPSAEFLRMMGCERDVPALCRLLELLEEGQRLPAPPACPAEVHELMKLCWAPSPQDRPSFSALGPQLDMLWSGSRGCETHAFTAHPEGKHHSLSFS

BTK-WT = target: T2, BTK-WT (Homo sapiens, UniProt Q06187); test: Btk in vitro inhibitory activity (one of Method A TR-FRET, Method B electrophoretic mobility shift, Method C radiometric filter binding); conditions: Table 15, C compounds; read-out: IC50 BTK-WT
T2 construct: purified from insect cells as a full-length construct containing an N-terminal 6X-His tag; His6 (N); made in house; host or cells: insect cells (baculovirus Sf21 in Method B)

SRC = SRC (Homo sapiens, UniProt P12931); test: Inhibition of a panel of kinases, in vitro HotSpot kinase assay: SRC; conditions: Table 15, C compounds; 1 μM ATP
Experimental: The degree of inhibition of a panel of kinases is determined using the in vitro HotSpot kinase assay (purified enzymes, ^33P-ATP, an appropriate substrate and 1 μM ATP).

LCK, sequence (P06239 whole entry): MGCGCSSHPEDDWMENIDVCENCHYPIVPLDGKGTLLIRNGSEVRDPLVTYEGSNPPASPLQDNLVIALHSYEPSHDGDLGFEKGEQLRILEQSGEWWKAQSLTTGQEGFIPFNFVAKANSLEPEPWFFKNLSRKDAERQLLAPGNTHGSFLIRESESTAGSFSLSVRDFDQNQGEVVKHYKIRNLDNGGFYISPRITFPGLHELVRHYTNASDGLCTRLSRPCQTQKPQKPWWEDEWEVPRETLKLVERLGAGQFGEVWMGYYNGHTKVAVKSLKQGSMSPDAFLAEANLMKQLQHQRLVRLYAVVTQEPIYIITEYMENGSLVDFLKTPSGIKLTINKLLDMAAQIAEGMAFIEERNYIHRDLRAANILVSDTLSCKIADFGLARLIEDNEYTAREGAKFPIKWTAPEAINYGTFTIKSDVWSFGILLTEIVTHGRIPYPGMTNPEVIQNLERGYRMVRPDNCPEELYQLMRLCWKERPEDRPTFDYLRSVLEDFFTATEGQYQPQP
SRC, sequence (P12931 whole entry): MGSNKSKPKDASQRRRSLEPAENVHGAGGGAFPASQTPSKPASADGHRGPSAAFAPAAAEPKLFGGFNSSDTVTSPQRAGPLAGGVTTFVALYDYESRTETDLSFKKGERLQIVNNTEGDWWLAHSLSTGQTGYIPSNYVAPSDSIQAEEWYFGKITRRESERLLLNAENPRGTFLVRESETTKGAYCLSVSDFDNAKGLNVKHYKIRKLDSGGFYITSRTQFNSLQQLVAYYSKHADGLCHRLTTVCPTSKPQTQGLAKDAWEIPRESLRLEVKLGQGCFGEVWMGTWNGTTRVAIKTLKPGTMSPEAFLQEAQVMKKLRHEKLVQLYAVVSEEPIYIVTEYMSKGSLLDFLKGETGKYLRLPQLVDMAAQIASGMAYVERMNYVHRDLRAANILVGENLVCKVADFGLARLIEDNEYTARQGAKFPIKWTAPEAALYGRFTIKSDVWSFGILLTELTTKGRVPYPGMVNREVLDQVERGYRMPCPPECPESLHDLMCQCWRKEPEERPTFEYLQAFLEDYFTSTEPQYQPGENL
T2 sequence (Q06187 whole entry): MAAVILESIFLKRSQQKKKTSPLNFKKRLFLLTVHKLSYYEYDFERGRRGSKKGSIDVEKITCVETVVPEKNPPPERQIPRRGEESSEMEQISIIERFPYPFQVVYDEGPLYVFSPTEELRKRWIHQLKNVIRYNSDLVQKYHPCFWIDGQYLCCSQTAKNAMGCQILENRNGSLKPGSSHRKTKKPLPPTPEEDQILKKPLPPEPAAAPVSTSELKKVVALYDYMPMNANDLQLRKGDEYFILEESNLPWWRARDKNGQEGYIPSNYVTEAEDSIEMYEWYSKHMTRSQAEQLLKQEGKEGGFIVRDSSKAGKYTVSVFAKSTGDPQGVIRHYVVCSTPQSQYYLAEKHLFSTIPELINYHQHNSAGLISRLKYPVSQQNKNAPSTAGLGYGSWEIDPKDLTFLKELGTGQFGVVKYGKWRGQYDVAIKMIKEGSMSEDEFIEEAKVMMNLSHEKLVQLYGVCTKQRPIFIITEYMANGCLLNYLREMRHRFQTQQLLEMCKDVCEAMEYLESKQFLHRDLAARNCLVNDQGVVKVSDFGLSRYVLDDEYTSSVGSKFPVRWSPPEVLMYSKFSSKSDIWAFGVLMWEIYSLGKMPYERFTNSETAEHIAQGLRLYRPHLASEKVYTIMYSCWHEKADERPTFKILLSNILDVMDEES

Structure (SMILES) | IC50 (LCK) [µM] | IC50 (JAK3) [µM] | IC50 (BTK-WT) [µM] | IC50 (SRC) [µM]
C=CC(=O)N1CCC[C@@H](Nc2nnc(C(N)=O)c(Nc3cc(C)ns3)n2)C1 [Example C-56, (R)-3-(1-acryloylpiperidin-3-ylamino)-5-(3-methylisothiazol-5-ylamino)-1,2,4-triazine-6-carboxamide] | 0.01 to 0.1 | < 0.01 | ≤ 0.01 | 0.01 to 0.1
C=CC(=O)N1CCC[C@@H](Nc2nnc(C(N)=O)c(Nc3ccc(C4CCN(C(=O)CC)CC4)cc3)n2)C1 [Example C-57, (R)-3-(1-acryloylpiperidin-3-ylamino)-5-(4-(1-propionylpiperidin-4-yl)phenylamino)-1,2,4-triazine-6-carboxamide] | 0.01 to 0.1 | < 0.01 | ≤ 0.01 | 0.01 to 0.1
C=CC(=O)N1CCC[C@@H](Nc2cnc(C(N)=O)c(Nc3ccc(C4CCN(C5CCCC5)CC4)cc3)n2)C1 [Example C-84, (R)-5-(1-acryloylpiperidin-3-ylamino)-3-(4-(1-cyclopentylpiperidin-4-yl)phenylamino)pyrazine-2-carboxamide] | 0.01 to 0.1 | < 0.01 | ≤ 0.01 | 0.01 to 0.1
C=CC(=O)N1CC[C@@H](N(C)c2cnc(C(N)=O)c(Nc3ccc(C4CCN(C5CCCC5)CC4)cc3)n2)C1 [Example C-85, (R)-5-((1-acryloylpyrrolidin-3-yl)(methyl)amino)-3-(4-(1-cyclopentylpiperidin-4-yl)phenylamino) pyrazine-2-carboxamide] | 0.1 to 1 | < 0.01 | ≤ 0.01 | 0.01 to 0.1

— patent publication US20210070748A1, “INHIBITORS OF BRUTONS TYROSINE KINASE” (Pharmacyclics LLC, priority 2015, published 2021)
